{"source": "ChEMBL document CHEMBL1136991", "about": "“Novel potent BRAF inhibitors: toward 1 nM compounds through optimization of the central phenyl ring” (J Med Chem, 2009)", "key": {"[1]": {"target": "T1, Mitogen-activated protein kinase 15 (Homo sapiens) (UniProt Q8TD08)", "T1 sequence (whole entry)": "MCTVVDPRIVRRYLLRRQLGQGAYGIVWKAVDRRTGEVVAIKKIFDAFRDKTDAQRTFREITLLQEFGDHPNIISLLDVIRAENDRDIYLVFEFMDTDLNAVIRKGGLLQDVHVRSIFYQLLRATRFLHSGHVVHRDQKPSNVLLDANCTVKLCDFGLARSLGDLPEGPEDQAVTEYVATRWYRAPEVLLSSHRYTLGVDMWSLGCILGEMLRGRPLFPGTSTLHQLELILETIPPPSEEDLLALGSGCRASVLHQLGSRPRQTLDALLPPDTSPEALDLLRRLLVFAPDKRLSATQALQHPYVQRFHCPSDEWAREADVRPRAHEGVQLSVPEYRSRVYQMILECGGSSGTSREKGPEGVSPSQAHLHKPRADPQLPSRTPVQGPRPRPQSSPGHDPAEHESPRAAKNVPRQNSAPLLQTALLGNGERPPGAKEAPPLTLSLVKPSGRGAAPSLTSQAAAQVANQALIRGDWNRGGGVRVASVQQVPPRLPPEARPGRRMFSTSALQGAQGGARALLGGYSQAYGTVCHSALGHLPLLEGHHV", "assay": "Inhibition of ERK8 at 1 uM relative to control"}, "[2]": {"target": "Serine/threonine-protein kinase Chk2 (Homo sapiens) (UniProt O96017)", "sequence (O96017 whole entry)": "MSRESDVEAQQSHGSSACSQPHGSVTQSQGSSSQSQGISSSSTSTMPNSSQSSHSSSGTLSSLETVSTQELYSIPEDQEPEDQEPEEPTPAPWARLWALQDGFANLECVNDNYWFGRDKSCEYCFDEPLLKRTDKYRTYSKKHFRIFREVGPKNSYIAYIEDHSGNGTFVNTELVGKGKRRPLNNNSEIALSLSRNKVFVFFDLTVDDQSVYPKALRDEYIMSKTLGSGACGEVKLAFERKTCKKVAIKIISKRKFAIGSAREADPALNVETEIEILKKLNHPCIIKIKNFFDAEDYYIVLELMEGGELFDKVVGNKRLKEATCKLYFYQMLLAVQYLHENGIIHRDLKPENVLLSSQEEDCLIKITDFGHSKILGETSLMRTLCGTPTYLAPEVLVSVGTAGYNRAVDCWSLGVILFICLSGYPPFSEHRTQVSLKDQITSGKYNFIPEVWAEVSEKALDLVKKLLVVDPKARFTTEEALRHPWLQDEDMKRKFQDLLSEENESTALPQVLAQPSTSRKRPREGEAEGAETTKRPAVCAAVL", "assay": "Inhibition of CHK2 at 1 uM relative to control"}, "[3]": {"target": "T2, Serine/threonine-protein kinase Nek2 (Homo sapiens) (UniProt P51955)", "T2 sequence (whole entry)": "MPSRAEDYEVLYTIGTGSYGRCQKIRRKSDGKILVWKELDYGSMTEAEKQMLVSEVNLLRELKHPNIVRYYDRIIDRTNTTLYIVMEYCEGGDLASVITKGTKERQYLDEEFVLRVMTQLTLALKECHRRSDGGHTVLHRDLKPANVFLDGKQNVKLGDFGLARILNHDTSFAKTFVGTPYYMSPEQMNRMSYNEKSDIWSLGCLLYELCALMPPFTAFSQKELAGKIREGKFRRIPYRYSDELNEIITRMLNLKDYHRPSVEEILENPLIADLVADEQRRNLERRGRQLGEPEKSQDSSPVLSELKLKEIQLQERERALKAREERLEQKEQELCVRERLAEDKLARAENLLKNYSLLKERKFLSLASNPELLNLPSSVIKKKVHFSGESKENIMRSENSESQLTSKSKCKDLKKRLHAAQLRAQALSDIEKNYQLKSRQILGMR", "assay": "Inhibition of NEK2a at 1 uM relative to control"}, "[4]": {"assay": "Inhibition of PKA at 1 uM relative to control"}, "[5]": {"target": "[Pyruvate dehydrogenase (acetyl-transferring)] kinase isozyme 1, mitochondrial (Homo sapiens) (UniProt Q15118)", "assay": "Inhibition of PDK1 at 1 uM relative to control"}, "[6]": {"target": "T3, Serine/threonine-protein kinase Sgk1 (Homo sapiens) (UniProt O00141)", "T3 sequence (whole entry)": "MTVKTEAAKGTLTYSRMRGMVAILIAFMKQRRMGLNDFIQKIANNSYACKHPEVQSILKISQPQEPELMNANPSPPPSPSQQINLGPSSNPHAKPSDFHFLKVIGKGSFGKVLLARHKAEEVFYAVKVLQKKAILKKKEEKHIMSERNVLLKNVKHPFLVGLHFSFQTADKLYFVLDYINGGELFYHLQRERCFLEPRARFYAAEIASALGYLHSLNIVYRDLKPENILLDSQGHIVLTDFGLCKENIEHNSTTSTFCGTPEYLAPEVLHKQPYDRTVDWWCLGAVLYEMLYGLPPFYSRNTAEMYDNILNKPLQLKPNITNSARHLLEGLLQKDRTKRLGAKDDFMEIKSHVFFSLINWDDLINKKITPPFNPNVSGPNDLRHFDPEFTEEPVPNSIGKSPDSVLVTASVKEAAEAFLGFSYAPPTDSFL", "assay": "Inhibition of SGK1 at 1 uM relative to control"}, "[7]": {"assay": "Inhibition of p38S at 1 uM relative to control"}}}
{"smiles": "CSc1cc(Oc2ccnc3[nH]c(=O)[nH]c23)ccc1NC(=O)Nc1cccc(C(F)(F)F)c1", "values": [{"measurement": "residual activity", "setting": "[1]", "result": 100, "unit": "%"}, {"measurement": "residual activity", "setting": "[2]", "result": 100, "unit": "%"}, {"measurement": "residual activity", "setting": "[3]", "result": 100, "unit": "%"}, {"measurement": "residual activity", "setting": "[4]", "result": 100, "unit": "%"}, {"measurement": "residual activity", "setting": "[5]", "result": 100, "unit": "%"}, {"measurement": "residual activity", "setting": "[6]", "result": 100, "unit": "%"}, {"measurement": "residual activity", "setting": "[7]", "result": 50, "unit": "%"}]}
{"smiles": "O=C(Nc1cc(C(F)(F)F)ccc1F)Nc1ccc(Oc2ccnc3[nH]c(=O)[nH]c23)c2ccccc12", "values": [{"measurement": "residual activity", "setting": "[1]", "result": 100, "unit": "%"}, {"measurement": "residual activity", "setting": "[2]", "result": 100, "unit": "%"}, {"measurement": "residual activity", "setting": "[3]", "result": 100, "unit": "%"}, {"measurement": "residual activity", "setting": "[4]", "result": 75, "unit": "%"}, {"measurement": "residual activity", "setting": "[5]", "result": 100, "unit": "%"}, {"measurement": "residual activity", "setting": "[6]", "result": 100, "unit": "%"}, {"measurement": "residual activity", "setting": "[7]", "result": 75, "unit": "%"}]}
{"smiles": "CC(C)(C)c1cccc(NC(=O)Nc2ccc(Oc3ccnc4[nH]c(=O)[nH]c34)c3ccccc23)c1", "values": [{"measurement": "residual activity", "setting": "[1]", "result": "< 25", "unit": "%"}, {"measurement": "residual activity", "setting": "[2]", "result": 75, "unit": "%"}, {"measurement": "residual activity", "setting": "[3]", "result": 75, "unit": "%"}, {"measurement": "residual activity", "setting": "[4]", "result": 75, "unit": "%"}, {"measurement": "residual activity", "setting": "[5]", "result": 100, "unit": "%"}, {"measurement": "residual activity", "setting": "[6]", "result": 100, "unit": "%"}, {"measurement": "residual activity", "setting": "[7]", "result": 50, "unit": "%"}]}
